According to article PMC7385619, “A triple action CDK4/6-PI3K-BET inhibitor with augmented cancer cell cytotoxicity” (Cell Discovery, 2020):
Read-outs that look alike come from different tables or passages of the source.

How the values were obtained:
Experiment in all cases: KINOMEscan assay (Eurofins DiscoverX)
Type in all cases: binding
[1] = target: T1, kinome (kinase panel) (Homo sapiens, UniProt Q8TDX7); details: NEK7; 1000 nM; read-out: Percent Control
T1 construct: purchased Eurofins DiscoverX

[2] = target: T2, kinome (kinase panel) (Homo sapiens, UniProt Q86V86); details: PIM3; 1000 nM; read-out: Percent Control
T2 construct: purchased Eurofins DiscoverX

[3] = target: T3, kinome (kinase panel) (Homo sapiens, UniProt Q02763); details: TIE2 (TEK); 1000 nM; read-out: Percent Control
T3 construct: purchased Eurofins DiscoverX

[4] = target: T4, kinome (kinase panel) (Homo sapiens, UniProt P49336); details: CDK8; 1000 nM; read-out: Percent Control
T4 construct: purchased Eurofins DiscoverX

[5] = target: T5, kinome (kinase panel) (Homo sapiens, UniProt Q00536); details: PCTK1 (Entrez CDK16); 1000 nM; read-out: Percent Control
T5 construct: purchased Eurofins DiscoverX

[6] = target: T6, kinome (kinase panel) (Homo sapiens, UniProt Q96Q40); details: PFTAIRE2 (Entrez CDK15); 1000 nM; read-out: Percent Control
T6 construct: purchased Eurofins DiscoverX

[7] = target: T7, kinome (kinase panel) (Homo sapiens, UniProt O60674); details: JAK2(JH1domain-catalytic); 1000 nM; read-out: Percent Control
T7 construct: purchased Eurofins DiscoverX

[8] = target: T8, kinome (kinase panel) (Homo sapiens, UniProt P42336); details: PIK3CA; 1000 nM; read-out: Percent Control
T8 construct: purchased Eurofins DiscoverX

[9] = target: T9, kinome (kinase panel) (Homo sapiens, UniProt Q16512); details: PKN1; 1000 nM; read-out: Percent Control
T9 construct: purchased Eurofins DiscoverX

[10] = target: T10, kinome (kinase panel) (Homo sapiens, UniProt P00533, L861Q); details: […]; 1000 nM; read-out: Percent Control
T10 construct: purchased Eurofins DiscoverX

[11] = target: T11, kinome (kinase panel) (Homo sapiens, UniProt P30291); details: WEE1; 1000 nM; read-out: Percent Control
T11 construct: purchased Eurofins DiscoverX

[12] = target: T12, kinome (kinase panel) (Homo sapiens, UniProt Q16513); details: PKN2; 1000 nM; read-out: Percent Control
T12 construct: purchased Eurofins DiscoverX

[13] = target: T13, kinome (kinase panel) (Homo sapiens, UniProt Q9H093); details: SNARK (NUAK2); 1000 nM; read-out: Percent Control
T13 construct: purchased Eurofins DiscoverX

[14] = target: T14, kinome (kinase panel) (Homo sapiens, UniProt P21802); details: FGFR2; 1000 nM; read-out: Percent Control
T14 construct: purchased Eurofins DiscoverX

[15] = target: T15, kinome (kinase panel) (Homo sapiens, UniProt O14733); details: MKK7 (Entrez MAP2K7); 1000 nM; read-out: Percent Control
T15 construct: purchased Eurofins DiscoverX

[16] = target: T16, kinome (kinase panel) (Homo sapiens, UniProt P36888, K663Q); details: […]; 1000 nM; read-out: Percent Control
T16 construct: purchased Eurofins DiscoverX

[17] = target: T17, kinome (kinase panel) (Homo sapiens, UniProt P51817); details: PRKX; 1000 nM; read-out: Percent Control
T17 construct: purchased Eurofins DiscoverX

[18] = target: T18, kinome (kinase panel) (Homo sapiens, UniProt Q9BYP7); details: WNK3; 1000 nM; read-out: Percent Control
T18 construct: purchased Eurofins DiscoverX

[19] = target: T19, kinome (kinase panel) (Homo sapiens, UniProt Q13237); details: PRKG2; 1000 nM; read-out: Percent Control
T19 construct: purchased Eurofins DiscoverX

[20] = target: T20, kinome (kinase panel) (Homo sapiens, UniProt P49674); details: CSNK1E; 1000 nM; read-out: Percent Control
T20 construct: purchased Eurofins DiscoverX

[21] = target: T21, kinome (kinase panel) (Homo sapiens, UniProt Q8N4C8); details: MINK (Entrez MINK1); 1000 nM; read-out: Percent Control
T21 construct: purchased Eurofins DiscoverX

[22] = target: T22, kinome (kinase panel) (Homo sapiens, UniProt Q8NEV4); details: MYO3A; 1000 nM; read-out: Percent Control
T22 construct: purchased Eurofins DiscoverX

[23] = target: T23, kinome (kinase panel) (Homo sapiens, UniProt P37173); details: TGFBR2; 1000 nM; read-out: Percent Control
T23 construct: purchased Eurofins DiscoverX

[24] = target: T24, kinome (kinase panel) (Homo sapiens, UniProt P78368); details: CSNK1G2; 1000 nM; read-out: Percent Control
T24 construct: purchased Eurofins DiscoverX

[25] = target: T25, kinome (kinase panel) (Homo sapiens, UniProt Q9NYY3); details: PLK2; 1000 nM; read-out: Percent Control
T25 construct: purchased Eurofins DiscoverX

[26] = target: T26, kinome (kinase panel) (Homo sapiens, UniProt Q13153); details: PAK1; 1000 nM; read-out: Percent Control
T26 construct: purchased Eurofins DiscoverX

[27] = target: T27, kinome (kinase panel) (Homo sapiens, UniProt P10721); details: 1000 nM, read-out: Percent Control
T27 construct: purchased Eurofins DiscoverX

[28] = target: T28, kinome (kinase panel) (Homo sapiens, UniProt Q9NWZ3); details: IRAK4; 1000 nM; read-out: Percent Control
T28 construct: purchased Eurofins DiscoverX

[29] = target: T29, kinome (kinase panel) (Homo sapiens, UniProt Q8NI60); details: ADCK3 (Entrez CABC1); 1000 nM; read-out: Percent Control
T29 construct: purchased Eurofins DiscoverX

[30] = target: T30, kinome (kinase panel) (Homo sapiens, UniProt O94806); details: PRKD3; 1000 nM; read-out: Percent Control
T30 construct: purchased Eurofins DiscoverX

[31] = target: T31, kinome (kinase panel) (Homo sapiens, UniProt Q96BR1); details: SGK3; 1000 nM; read-out: Percent Control
T31 construct: purchased Eurofins DiscoverX

[32] = target: T32, kinome (kinase panel) (Homo sapiens, UniProt O00141); details: SGK (SGK1); 1000 nM; read-out: Percent Control
T32 construct: purchased Eurofins DiscoverX

T27 sequence (P10721 26-976): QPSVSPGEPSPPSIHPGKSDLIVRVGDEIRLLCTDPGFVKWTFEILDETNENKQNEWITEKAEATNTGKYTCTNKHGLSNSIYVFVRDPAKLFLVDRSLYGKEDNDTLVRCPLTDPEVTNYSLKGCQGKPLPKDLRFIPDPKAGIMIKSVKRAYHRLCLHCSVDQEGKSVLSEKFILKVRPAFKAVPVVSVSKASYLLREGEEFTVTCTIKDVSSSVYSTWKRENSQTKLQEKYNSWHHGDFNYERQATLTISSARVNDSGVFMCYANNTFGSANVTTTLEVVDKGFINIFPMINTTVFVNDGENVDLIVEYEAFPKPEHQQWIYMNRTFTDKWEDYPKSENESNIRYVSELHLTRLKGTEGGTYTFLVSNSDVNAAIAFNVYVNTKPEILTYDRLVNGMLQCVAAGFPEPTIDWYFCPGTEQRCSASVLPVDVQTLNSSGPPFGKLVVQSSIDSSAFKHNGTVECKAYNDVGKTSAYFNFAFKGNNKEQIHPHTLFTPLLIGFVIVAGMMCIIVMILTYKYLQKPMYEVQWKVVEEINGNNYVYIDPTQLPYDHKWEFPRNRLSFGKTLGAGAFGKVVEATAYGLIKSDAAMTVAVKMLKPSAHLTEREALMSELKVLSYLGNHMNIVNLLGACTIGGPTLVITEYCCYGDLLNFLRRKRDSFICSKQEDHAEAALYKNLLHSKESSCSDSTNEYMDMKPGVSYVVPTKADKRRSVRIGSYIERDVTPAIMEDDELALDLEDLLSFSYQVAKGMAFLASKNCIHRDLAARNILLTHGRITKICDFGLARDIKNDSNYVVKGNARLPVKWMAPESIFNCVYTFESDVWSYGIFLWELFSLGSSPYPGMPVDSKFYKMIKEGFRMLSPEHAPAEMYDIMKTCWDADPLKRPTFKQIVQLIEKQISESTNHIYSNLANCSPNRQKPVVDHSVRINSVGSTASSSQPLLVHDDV
T18 sequence (Q9BYP7 whole entry): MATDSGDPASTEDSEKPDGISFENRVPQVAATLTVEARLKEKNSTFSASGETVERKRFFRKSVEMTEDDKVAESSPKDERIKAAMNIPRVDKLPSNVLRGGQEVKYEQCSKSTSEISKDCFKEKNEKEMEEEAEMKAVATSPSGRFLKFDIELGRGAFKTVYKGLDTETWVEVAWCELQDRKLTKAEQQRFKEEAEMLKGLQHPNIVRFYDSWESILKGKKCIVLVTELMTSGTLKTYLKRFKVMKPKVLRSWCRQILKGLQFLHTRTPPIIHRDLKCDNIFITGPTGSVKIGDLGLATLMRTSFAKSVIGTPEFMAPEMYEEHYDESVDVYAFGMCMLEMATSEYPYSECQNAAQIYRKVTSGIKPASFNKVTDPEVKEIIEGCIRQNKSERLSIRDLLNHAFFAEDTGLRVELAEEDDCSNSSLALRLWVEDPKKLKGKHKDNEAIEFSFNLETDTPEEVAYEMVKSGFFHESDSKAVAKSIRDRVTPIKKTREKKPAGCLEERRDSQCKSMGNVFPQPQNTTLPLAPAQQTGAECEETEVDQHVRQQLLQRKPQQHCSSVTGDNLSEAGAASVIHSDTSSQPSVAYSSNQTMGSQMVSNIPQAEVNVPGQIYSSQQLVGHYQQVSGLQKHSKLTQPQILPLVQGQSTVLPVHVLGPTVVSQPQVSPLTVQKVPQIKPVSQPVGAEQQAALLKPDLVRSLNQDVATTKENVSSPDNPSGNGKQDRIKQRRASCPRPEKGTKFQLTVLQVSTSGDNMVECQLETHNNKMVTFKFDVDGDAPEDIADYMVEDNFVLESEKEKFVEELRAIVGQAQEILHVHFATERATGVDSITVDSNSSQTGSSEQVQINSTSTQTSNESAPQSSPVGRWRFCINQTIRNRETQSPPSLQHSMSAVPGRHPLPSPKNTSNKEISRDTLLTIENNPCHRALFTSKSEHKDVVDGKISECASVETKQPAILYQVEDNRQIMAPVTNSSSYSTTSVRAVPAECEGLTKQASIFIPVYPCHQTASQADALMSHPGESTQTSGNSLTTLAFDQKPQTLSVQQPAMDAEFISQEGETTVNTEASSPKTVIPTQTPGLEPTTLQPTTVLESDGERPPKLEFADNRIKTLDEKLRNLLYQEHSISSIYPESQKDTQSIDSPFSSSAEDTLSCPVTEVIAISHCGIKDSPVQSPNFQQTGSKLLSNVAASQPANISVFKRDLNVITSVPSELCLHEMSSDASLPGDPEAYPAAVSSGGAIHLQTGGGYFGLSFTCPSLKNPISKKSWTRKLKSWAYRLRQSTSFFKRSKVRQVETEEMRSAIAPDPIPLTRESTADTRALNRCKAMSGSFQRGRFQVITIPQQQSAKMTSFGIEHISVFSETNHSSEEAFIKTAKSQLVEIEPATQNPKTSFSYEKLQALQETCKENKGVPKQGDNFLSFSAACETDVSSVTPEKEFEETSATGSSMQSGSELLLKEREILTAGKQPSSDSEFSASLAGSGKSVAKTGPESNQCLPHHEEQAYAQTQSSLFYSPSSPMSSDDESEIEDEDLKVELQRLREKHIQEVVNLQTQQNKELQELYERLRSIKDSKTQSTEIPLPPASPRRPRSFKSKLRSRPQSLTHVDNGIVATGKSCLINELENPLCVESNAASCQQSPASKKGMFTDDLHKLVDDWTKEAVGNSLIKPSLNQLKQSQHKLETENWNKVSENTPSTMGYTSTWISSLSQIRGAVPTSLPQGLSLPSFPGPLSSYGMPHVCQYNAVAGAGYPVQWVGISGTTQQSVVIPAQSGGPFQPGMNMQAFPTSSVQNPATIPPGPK
T5 sequence (Q00536 whole entry): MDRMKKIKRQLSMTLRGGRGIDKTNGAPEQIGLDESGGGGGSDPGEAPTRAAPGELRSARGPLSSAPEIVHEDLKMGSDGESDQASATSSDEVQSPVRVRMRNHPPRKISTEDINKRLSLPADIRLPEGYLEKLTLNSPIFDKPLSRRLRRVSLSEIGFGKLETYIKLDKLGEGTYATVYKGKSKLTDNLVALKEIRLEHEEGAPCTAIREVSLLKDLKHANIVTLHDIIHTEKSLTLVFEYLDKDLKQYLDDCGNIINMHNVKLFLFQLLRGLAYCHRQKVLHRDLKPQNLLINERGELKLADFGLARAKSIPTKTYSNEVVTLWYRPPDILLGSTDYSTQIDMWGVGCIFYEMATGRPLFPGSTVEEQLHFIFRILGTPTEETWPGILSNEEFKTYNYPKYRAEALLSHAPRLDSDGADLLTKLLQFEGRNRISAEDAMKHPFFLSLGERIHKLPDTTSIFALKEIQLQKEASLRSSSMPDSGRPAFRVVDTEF
T14 sequence (P21802 22-821): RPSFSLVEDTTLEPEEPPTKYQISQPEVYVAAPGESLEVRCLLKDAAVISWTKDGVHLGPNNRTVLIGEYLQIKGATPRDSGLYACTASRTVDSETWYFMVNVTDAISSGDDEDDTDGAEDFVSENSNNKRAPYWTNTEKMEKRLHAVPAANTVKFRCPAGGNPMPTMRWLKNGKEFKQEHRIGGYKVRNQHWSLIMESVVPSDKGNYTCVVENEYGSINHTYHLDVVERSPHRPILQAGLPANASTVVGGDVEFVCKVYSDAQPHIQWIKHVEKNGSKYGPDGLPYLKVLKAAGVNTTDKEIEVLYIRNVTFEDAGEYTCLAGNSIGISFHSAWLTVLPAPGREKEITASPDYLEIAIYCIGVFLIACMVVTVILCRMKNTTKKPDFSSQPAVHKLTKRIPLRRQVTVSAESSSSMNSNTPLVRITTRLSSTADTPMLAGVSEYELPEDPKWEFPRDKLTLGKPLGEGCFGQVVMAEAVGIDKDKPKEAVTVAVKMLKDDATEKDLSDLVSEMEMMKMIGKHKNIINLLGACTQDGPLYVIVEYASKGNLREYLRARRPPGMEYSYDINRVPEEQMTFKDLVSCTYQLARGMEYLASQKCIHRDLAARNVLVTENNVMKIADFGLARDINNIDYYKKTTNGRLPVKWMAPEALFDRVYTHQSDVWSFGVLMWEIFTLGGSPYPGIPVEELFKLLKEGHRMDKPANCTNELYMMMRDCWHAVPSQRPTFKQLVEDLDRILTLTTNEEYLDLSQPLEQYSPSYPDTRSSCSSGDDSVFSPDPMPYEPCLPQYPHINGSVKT
T8 sequence (P42336 whole entry): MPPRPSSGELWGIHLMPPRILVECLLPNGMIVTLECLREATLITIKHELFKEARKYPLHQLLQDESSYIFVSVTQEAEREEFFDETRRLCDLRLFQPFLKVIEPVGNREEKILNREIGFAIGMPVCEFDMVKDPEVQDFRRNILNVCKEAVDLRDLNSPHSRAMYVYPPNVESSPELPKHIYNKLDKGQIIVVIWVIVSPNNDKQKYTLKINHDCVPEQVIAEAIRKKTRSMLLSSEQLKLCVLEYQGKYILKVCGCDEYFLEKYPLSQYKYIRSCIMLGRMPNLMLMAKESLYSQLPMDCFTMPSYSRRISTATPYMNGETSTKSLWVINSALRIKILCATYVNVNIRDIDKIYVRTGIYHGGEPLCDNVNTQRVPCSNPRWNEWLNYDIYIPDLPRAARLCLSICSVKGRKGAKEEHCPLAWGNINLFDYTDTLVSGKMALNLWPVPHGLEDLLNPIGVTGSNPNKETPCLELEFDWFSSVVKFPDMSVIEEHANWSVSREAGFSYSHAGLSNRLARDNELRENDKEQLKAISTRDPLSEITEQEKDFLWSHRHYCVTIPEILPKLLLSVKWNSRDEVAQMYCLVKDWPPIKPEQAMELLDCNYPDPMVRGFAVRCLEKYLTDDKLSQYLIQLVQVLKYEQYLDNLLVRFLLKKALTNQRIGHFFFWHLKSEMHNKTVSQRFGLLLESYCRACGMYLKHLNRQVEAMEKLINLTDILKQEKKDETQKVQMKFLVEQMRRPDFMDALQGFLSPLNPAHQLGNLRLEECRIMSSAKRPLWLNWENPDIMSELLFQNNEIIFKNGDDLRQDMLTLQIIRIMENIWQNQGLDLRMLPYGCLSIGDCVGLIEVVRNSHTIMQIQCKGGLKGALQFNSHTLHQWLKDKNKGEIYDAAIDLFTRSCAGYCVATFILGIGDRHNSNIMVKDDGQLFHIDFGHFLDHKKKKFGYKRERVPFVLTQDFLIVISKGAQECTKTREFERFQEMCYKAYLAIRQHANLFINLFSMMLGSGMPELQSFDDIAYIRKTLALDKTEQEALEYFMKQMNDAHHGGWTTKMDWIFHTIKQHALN

How did the remaining binding at 1 µM [1] turn out when CN(C)C(=O)c1cc2cnc(Nc3ccc(-c4csc5c(=O)cc(N6CCOCC6)oc45)cc3)nc2n1C1CCCC1 [SRX3177] was run?
Its remaining binding at 1 µM is 100%.

What about the remaining binding at 1 µM [2] of the same molecule?
Its remaining binding at 1 µM is 78%.

And the remaining binding at 1 µM [3]?
Its remaining binding at 1 µM is 100%.

What about the remaining binding at 1 µM [4] of the same molecule?
The remaining binding at 1 µM was 90%.

What about the remaining binding at 1 µM [5] of the same molecule?
The remaining binding at 1 µM was 21%.

What about the remaining binding at 1 µM [6] of the same molecule?
Its remaining binding at 1 µM is 90%.

What about the remaining binding at 1 µM [7] of the same molecule?
Its remaining binding at 1 µM is 34%.

And the remaining binding at 1 µM [8]?
The remaining binding at 1 µM was 72%.

What about the remaining binding at 1 µM [9] of the same molecule?
Its remaining binding at 1 µM is 55%.

And the remaining binding at 1 µM [10]?
The remaining binding at 1 µM was 74%.

And the remaining binding at 1 µM [11]?
Its remaining binding at 1 µM is 99%.

What about the remaining binding at 1 µM [12] of the same molecule?
The remaining binding at 1 µM was 70%.

What about the remaining binding at 1 µM [13] of the same molecule?
Its remaining binding at 1 µM is 70%.

What about the remaining binding at 1 µM [14] of the same molecule?
Its remaining binding at 1 µM is 86%.

What about the remaining binding at 1 µM [15] of the same molecule?
Its remaining binding at 1 µM is 46%.

And the remaining binding at 1 µM [16]?
Its remaining binding at 1 µM is 93%.

What about the remaining binding at 1 µM [17] of the same molecule?
Its remaining binding at 1 µM is 96%.

And the remaining binding at 1 µM [18]?
The remaining binding at 1 µM was 100%.

What about the remaining binding at 1 µM [19] of the same molecule?
Its remaining binding at 1 µM is 87%.

And the remaining binding at 1 µM [20]?
Its remaining binding at 1 µM is 63%.

What about the remaining binding at 1 µM [21] of the same molecule?
The remaining binding at 1 µM was 77%.

And the remaining binding at 1 µM [22]?
Its remaining binding at 1 µM is 97%.

And the remaining binding at 1 µM [23]?
Its remaining binding at 1 µM is 100%.

And the remaining binding at 1 µM [24]?
The remaining binding at 1 µM was 96%.

And the remaining binding at 1 µM [25]?
The remaining binding at 1 µM was 86%.

What about the remaining binding at 1 µM [26] of the same molecule?
Its remaining binding at 1 µM is 90%.

And the remaining binding at 1 µM ([27]; KIT-autoinhibited)?
Its remaining binding at 1 µM is 73%.

What about the remaining binding at 1 µM ([27]; KIT) of the same molecule?
Its remaining binding at 1 µM is 68%.

What about the remaining binding at 1 µM [28] of the same molecule?
Its remaining binding at 1 µM is 45%.

What about the remaining binding at 1 µM [29] of the same molecule?
The remaining binding at 1 µM was 99%.

And the remaining binding at 1 µM [30]?
Its remaining binding at 1 µM is 92%.

What about the remaining binding at 1 µM [31] of the same molecule?
Its remaining binding at 1 µM is 100%.

And the remaining binding at 1 µM [32]?
Its remaining binding at 1 µM is 56%.
